Source: US20220257805A1, “PHARMACEUTICAL FORMULATIONS AND METHODS FOR DELIVERING A THERAPEUTIC, DIAGNOSTIC, OR IMAGING AGENT TO CD206” (Syracuse University, priority 2019, published 2022)
“Also recorded” adds a separate entry of the source.

How the values were obtained:
[1] = tested on: BN16 cells; experiment: Flow cytometry of cellular association in BN16 cells (CUBN positive, CD206 negative); assay type: cell-based, Brown Norway rat; conditions: 200 nM, HBSS, 1 h
Procedure: (§1) Cellular association via the typical holo-IF target receptor, CUBN, was conducted in CUBN positive, CD206 negative (see western blot, FIG. 10) BN16 (Brown Norway rat yolk) cells via flow cytometry using fluorescent B12-Cy5 to show functionalization of the IF-B12 complex in vitro (FIG. 3).
(§2) Flow cytometry: Flow cytometry analyses were carried out on a Becton Dickinson LSRII Cell Analyzer.
(§3) Cell culture: Cell lines J774A.1 (ATCC TIB-67; CD206 positive), CHO-K1 (ATCC CCL-61; control line) and HepG2 (SIGMA 85011430; ASGPR positive) were obtained from the American Type Culture Collection (ATCC). BN16 cells (cubilin positive) were kindly provided by Prof. Pierre Verroust (INSERM, Paris, France). J774A.1 and BN16 cells were cultured as adherent monolayers in DMEM supplemented with 10% FBS and 1% pen/strep (Penicillin-streptomycin solution with 10,000 units penicillin and 10 mg/mL streptomycin in 0.9% NaCl obtained from Thermo Fisher). CHO-K1 were cultured as adherent monolayers in F12-K supplemented with 10% FBS and 1% pen/strep. Cells were incubated at 37° C. with 5% C02. Hank's balanced salt solution (HBSS) was purchased from Sigma. […]
(§4) Flow cytometry measurements of cellular internalization: Cells were plated on a 6-well plate and allowed to adhere for at least 24 h until at least 80% confluency. […] All cells were excited at 640 nm and detected at 660±20 nm.

[2] = tested on: HepG2 cells; experiment: Flow cytometry of uptake in HepG2 cells (ASGPR positive); assay type: cell-based; conditions: 100 nM in HBSS
Procedure: as §1, §2, §3, §4

[3] = tested on: J774A.1 cells; experiment: Flow cytometry of uptake in J774A.1 macrophage cells (CUBN-, CD206+), with or without mannan block; assay type: cell-based
Procedure: Adding mannan (2 mg/mL), 45 minutes prior to, and concomitant with IF-B12-Cy5 incubation, reduced IF-B12-Cy5 uptake (FIG. 3) supporting a mannose receptor mediated process.
as §2
Cell culture: Cell lines J774A.1 (ATCC TIB-67; CD206 positive), CHO-K1 (ATCC CCL-61; control line) and HepG2 (SIGMA 85011430; ASGPR positive) were obtained from the American Type Culture Collection (ATCC). BN16 cells (cubilin positive) were kindly provided by Prof. Pierre Verroust (INSERM, Paris, France). J774A.1 and BN16 cells were cultured as adherent monolayers in DMEM supplemented with 10% FBS and 1% pen/strep (Penicillin-streptomycin solution with 10,000 units penicillin and 10 mg/mL streptomycin in 0.9% NaCl obtained from Thermo Fisher). CHO-K1 were cultured as adherent monolayers in F12-K supplemented with 10% FBS and 1% pen/strep. Cells were incubated at 37° C. with 5% C02. Hank's balanced salt solution (HBSS) was purchased from Sigma. Charcoal stripped fetal bovine serum (FBS) and were purchased from Sigma.
as §4

[4] = tested on: CHO-K1 cells; experiment: Flow cytometry of uptake in CHO-K1 cells (CUBN and CD206 free); assay type: cell-based, Chinese hamster; conditions: 100 nM in HBSS
Procedure: as §1, §2, §3, §4

[5] = target: T1, human gastric IF (Homo sapiens, UniProt P27352); experiment: IF binding affinity, radiometric chase assay using 57Co-B12; conditions: cold tracer
T1 construct: purchased Xeragenx LLC (St. Louis, Mo., USA); host or cells: Arabidopsis thaliana
T1 sequence (P27352 19-417): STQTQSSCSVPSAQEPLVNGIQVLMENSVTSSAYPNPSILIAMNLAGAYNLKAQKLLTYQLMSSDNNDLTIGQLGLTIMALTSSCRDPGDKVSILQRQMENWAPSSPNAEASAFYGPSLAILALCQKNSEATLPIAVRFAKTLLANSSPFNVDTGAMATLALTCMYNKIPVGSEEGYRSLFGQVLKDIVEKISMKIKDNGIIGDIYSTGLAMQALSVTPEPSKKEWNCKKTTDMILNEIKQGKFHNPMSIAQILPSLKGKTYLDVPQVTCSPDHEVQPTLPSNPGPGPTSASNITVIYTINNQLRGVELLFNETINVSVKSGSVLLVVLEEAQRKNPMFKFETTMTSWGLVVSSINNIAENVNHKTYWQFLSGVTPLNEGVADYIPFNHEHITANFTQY
Procedure: To confirm IF binding of ^89Zr-B12, a radiometric chase assay[15] was completed with a ‘cold’ ^91Zr bound to B12 tracer (^91Zr-B12) and compared to free B12, as cyanocobalamin (CN-B12) (FIG. 2). ^91Zr-B12 was made using B12-DFO and chelated to ^91ZrCl4 at pH 7-7.5. IF binding of ^91Zr-B12 was maintained at low nanomolar levels (1.57 nM), similar to CN-B12 control (1.36 nM).
IF binding affinities: To confirm that ^89Zr-B12 will bind to IF, a radiometric chase assay, using ^57Co-B12 was completed (as previously reported)[15] with a cold tracer (^91Zr-B12) and compared to free B12, as cyanocobalamin (CN-B12). Zr-B12 was made using B12-DFO and chelated to ZrCl4 at pH 7.5.

In the case of “IF-B12-Cy5: B12-Cy5 bound to recombinant human intrinsic factor (IF-B12 complex)”, the “cellular association (flow cytometry) at 4° C.” value ([1]; 4° C.) is reported as “Reduction in binding (or internalization)”, the “cellular association (flow cytometry)” value ([1]; 37° C.) is reported as “significant association” and the “uptake / internalization (flow cytometry)” value [2] is reported as “not internalized”. For the same substance, the “binding / uptake (flow cytometry)” value ([3]; 200 nM, HBSS, 1 h, 37° C.) was “binding”, the “uptake with mannan block” value ([3]; mannan 2 mg/mL 45 minutes prior to and concomitant with incubation) was “reduced; also recorded: near complete block in uptake” and the “uptake / internalization (flow cytometry)” value [4] was “Neither compound was internalized”.

cyanocobalamin [CN-B12] showed a Kd [5] of 1.36 nM.
